molecular target: T1, Human PTP1B (1-321) (Homo sapiens, UniProt P18031); assay: In vitro inhibition of PTP1B (PTPase assays: Malachite Green phosphopeptide method or DiFMUP method); assay type: biochemical; conditions: PTP1B inhibitory activity
T1 construct: Human PTP1B (1-321) was cloned from a human cDNA library; made in house; host or cells: E. coli
T1 sequence (P18031 1-321): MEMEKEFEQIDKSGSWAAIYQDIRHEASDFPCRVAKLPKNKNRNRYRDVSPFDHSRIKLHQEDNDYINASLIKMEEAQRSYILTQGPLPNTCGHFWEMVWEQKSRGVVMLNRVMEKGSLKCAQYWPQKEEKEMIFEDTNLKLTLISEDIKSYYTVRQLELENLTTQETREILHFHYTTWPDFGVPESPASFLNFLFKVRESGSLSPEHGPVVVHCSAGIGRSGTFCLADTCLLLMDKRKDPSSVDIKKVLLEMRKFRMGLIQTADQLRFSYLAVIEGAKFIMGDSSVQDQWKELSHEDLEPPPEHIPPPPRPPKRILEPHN
Method: Human PTP1B (1-321) was cloned from a human cDNA library using conventional molecular biology techniques. The cDNA sequence was identical to the published human PTP1B sequence (Accession number M33689). The protein was expressed and purified from E. coli as described by Barford D. et. al J. Mol. Biol (1994) 239, 726-730.
The measurement of PTPase activity was carried out using one of two methods:
The first method for the measurement of PTP1B inhibitory activity a tyrosine phosphorylated peptide based on the amino acid sequence of insulin receptor tyrosine autophosphorylation site 1146 (TRDI(pY)E) was used as substrate. The reaction conditions were as follows:
PTP1B (0.5-2 nM) was incubated with compound for 15 min in buffer containing 37.5 mM Bis-Tris buffer pH 6.2, 140 mMNaCl, 0.05% BSA and 2 mM DTT. The reaction was started by the addition of 50 μM substrate. After 20 min at room temperature (22-25° C.), the reaction was stopped with KOH and the amount of free phosphate measured using Malachite Green as previously described (Harder et al. 1994 Biochem J. 298; 395).
The second method was used for the measurement of general PTPase inhibitory activity across a panel of PTPases the substrate (6,8-difluoro-4-methylumbelliferyl phosphate (DiFMUP; from Molecular Probes) was used at the Km for each enzyme. The buffer conditions were identical as in the Malachite Green assay. The reaction was stopped with KOH. In this case the dephosphoryated product becomes fluorescent and the fluorescense read (Excitiation: […]/Emmission: 460 nM).
The following Table lists IC50 results for several of the above exemplified compounds: […]

Structure (SMILES) | IC50 [nM]
CNc1nc(N)nc2nc(C3(c4ccccc4)CCCCC3)ccc12 [Example 59, N4-Methyl-7-(1-phenyl-cyclohexyl)-pyrido[2,3-d]pyrimidine-2,4-diamine] | 10800
CNc1nc(N)nc2nc(-c3c(Oc4ccccc4)cccc3C(F)(F)F)ccc12 [Example 80, N4-Methyl-7-(2-phenoxy-6-trifluoromethyl-phenyl)-pyrido[2,3-d]pyrimidine-2,4-diamine] | 170
CNc1nc(N)nc2nc(-c3c(Cl)cccc3Cl)ccc12 [Example 3, 7-(2,6-Dichloro-phenyl)-N4-methyl-pyrido[2,3-d]pyrimidine-2,4-diamine] | 510
CNc1nc(N)nc2nc(-c3ccccc3C)ccc12 [Example 1, N4-Methyl-7-o-tolyl-pyrido[2,3-d]pyrimidine-2,4-diamine] | 1660
CNc1nc(N)nc2nc(-c3cccs3)ccc12 [Example 13, N4-Methyl-7-thiophen-2-yl-pyrido[2,3-d]pyrimidine-2,4-diamine] | 3570
CNc1nc(N)nc2nc(-c3cccc4ccccc34)ccc12 [Example 28, N4-Methyl-7-naphthalen-1-yl-pyrido[2,3-d]pyrimidine-2,4-diamine] | 1150
CNc1nc(N)nc2nc(-c3ccccc3C(F)(F)F)c(C(=O)O)cc12 [Example 56, 2-Amino-4-methylamino-7-(2-trifluoromethyl-phenyl)-pyrido[2,3-d]pyrimidine-6-carboxylic acid] | 250
CNc1nc(N)nc2nc(C3CCCCC3)ccc12 [Example 9, 7-Cyclohexyl-N4-methyl-pyrido[2,3-d]pyrimidine-2,4-diamine] | 1410
CNc1nc(N)nc2nc(-c3ccccc3)cc(-c3ccccc3)c12 [Example 139, N*4*-Methyl-5,7-diphenyl-pyrido[2,3-d]pyrimidine-2,4-diamine] | 52400

Further compounds by falling IC50, results first:

IC50 [nM] | Structure (SMILES)
4220 | CNc1nc(N)nc2nc3c(cc12)CCc1ccccc1-3 [Example 27, N8-Methyl-5,6-dihydro-benzo[h]pyrimido[4,5-b]quinoline-8,10-diamine]
2560 | CNc1nc(N)nc2nc(-c3ccccc3)c(-c3ccccc3)cc12 [Example 14, N4-Methyl-6,7-diphenyl-pyrido[2,3-d]pyrimidine-2,4-diamine]
2330 | CNc1nc(N)nc2nc(-c3c(F)cccc3N3CCOCC3)ccc12 [Example 92, 7-(2-Fluoro-6-morpholino-4-yl-phenyl)-N4-methyl-pyrido[2,3-d]pyrimidine-2,4-diamine]
2050 | CNc1nc(N)nc2nc(-c3c(N4CCC(Cc5ccccc5)CC4)cccc3C(F)(F)F)ccc12 [Example 121, 7-[2-(4-Benzyl-piperidin-1-yl)-6-trifluoromethyl-phenyl]-N4-methyl-pyrido[2,3-d]pyrimidine-2,4-diamine]
800 | CNc1nc(N)nc2nc(-c3c(N4C(C)CCC4C)cccc3C(F)(F)F)ccc12 (stereo not drawn) [Example 107, 7-[2-(2,5-Dimethyl-pyrrolidin-1-yl)-6-trifluoromethyl-phenyl]-N4-methyl-pyrido[2,3-d]pyrimidine-2,4-diamine]
300 | CNc1nc(N)nc2nc(-c3c(N4CCN(C(=O)c5ccco5)CC4)cccc3C(F)(F)F)ccc12 [Example 116, {4-[2-(2-Amino-4-methylamino-pyrido[2,3-d]pyrimidin-7-yl)-3-trifluoromethyl-phenyl]-piperazin-1-yl}-furan-2-yl-methanone]
